In US20100041089A1, “IMPROVED METHOD FOR DETECTING CHEMICAL […]” (priority 2006, published 2010):

Test system: yeast genes (expressed mRNA)
Experiment: DNA chip measurement of expressed mRNA of yeast genes after culture with a toxic chemical substance
Assay type: cell-based, Saccharomyces cerevisiae S288C
Conditions: for level of expressed mRNA in the presence of chemical substance / level in the absence of chemical substance: cultured two hours with the chemical substance; for The level of expressed mRNA in the presence of chemical substance/The level of expressed mRNA in the absence of chemical substance: cultured two hours with substance
Procedure, shortened: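 Each expression value is the mRNA level in chemical-treated yeast divided by that in untreated yeast, from Cy3/Cy5 fluorescence on a whole-genome chip. Log-phase S288C cells in YPD at 25° C had received a sublethal, growth-inhibiting dose for two hours. Intensity denotes control expression relative to the all-gene mean.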

CCCCCCCCCCCCc1ccc(S(=O)(=O)[O-])cc1.[Na+] [(17), Sodium dodecylbenzosulfonate]
level of expressed mRNA in the presence of chemical substance / level in the absence of chemical substance (yeast gene YNL058C): 0.8 | level of expressed mRNA in the presence of chemical substance / level in the absence of chemical substance (yeast gene YNL063W): 0.9 | The level of expressed mRNA in the presence of chemical substance/The level of expressed mRNA in the absence of chemical substance (yeast gene YNL074C): 1.1 | The level of expressed mRNA in the presence of chemical substance/The level of expressed mRNA in the absence of chemical substance (yeast gene YNL092W): 1.7 | The level of expressed mRNA in the presence of chemical substance/The level of expressed mRNA in the absence of chemical substance (yeast gene YNL115C): 1.6 | The level of expressed mRNA in the presence of chemical substance/The level of expressed mRNA in the absence of chemical substance (yeast gene YNL156C): 1.8 | level of expressed mRNA in the presence of chemical substance / level in the absence of chemical substance (yeast gene YNL176C): 0.6 | level of expressed mRNA in the presence of chemical substance / level in the absence of chemical substance (yeast gene YNL194C): 0.8 | level of expressed mRNA in the presence of chemical substance / level in the absence of chemical substance (yeast gene YNL200C): 1.2 | The level of expressed mRNA in the presence of chemical substance/The level of expressed mRNA in the absence of chemical substance (yeast gene YNL234W): 1.0 | level of expressed mRNA in the presence of chemical substance / level in the absence of chemical substance (yeast gene YNL253W): 1.1 | level of expressed mRNA in the presence of chemical substance / level in the absence of chemical substance (yeast gene YNL276C): 1.1 | The level of expressed mRNA in the presence of chemical substance/The level of expressed mRNA in the absence of chemical substance (yeast gene YNL281W): 0.9 | The level of expressed mRNA in the presence of chemical substance/The level of expressed mRNA in the absence of chemical substance (yeast gene YNL305C): 1.7 | level of expressed mRNA in the presence of chemical substance / level in the absence of chemical substance (yeast gene YNR051C): 0.7 | The level of expressed mRNA in the presence of chemical substance/The level of expressed mRNA in the absence of chemical substance (yeast gene YNR068C): 1.0 | level of expressed mRNA in the presence of chemical substance / level in the absence of chemical substance (yeast gene YOL026C): 2.1 | The level of expressed mRNA in the presence of chemical substance/The level of expressed mRNA in the absence of chemical substance (yeast gene YOL032W): 1.7 | The level of expressed mRNA in the presence of chemical substance/The level of expressed mRNA in the absence of chemical substance (yeast gene YOL036W): 1.1 | The level of expressed mRNA in the presence of chemical substance/The level of expressed mRNA in the absence of chemical substance (yeast gene YOL047C): 1.5 | The level of expressed mRNA in the presence of chemical substance/The level of expressed mRNA in the absence of chemical substance (yeast gene YOL071W): 1.3 | The level of expressed mRNA in the presence of chemical substance/The level of expressed mRNA in the absence of chemical substance (yeast gene YOL082W): 1.6 | The level of expressed mRNA in the presence of chemical substance/The level of expressed mRNA in the absence of chemical substance (yeast gene YOL083W): 1.4 | The level of expressed mRNA in the presence of chemical substance/The level of expressed mRNA in the absence of chemical substance (yeast gene YOL117W): 1.3 | The level of expressed mRNA in the presence of chemical substance/The level of expressed mRNA in the absence of chemical substance (yeast gene YOL131W): 1.1 | The level of expressed mRNA in the presence of chemical substance/The level of expressed mRNA in the absence of chemical substance (yeast gene YOL150C): 2.7 | The level of expressed mRNA in the presence of chemical substance/The level of expressed mRNA in the absence of chemical substance (yeast gene YOL162W): 1.2 | The level of expressed mRNA in the presence of chemical substance/The level of expressed mRNA in the absence of chemical substance (yeast gene YOR019W): 1.7 | level of expressed mRNA in the presence of chemical substance / level in the absence of chemical substance (yeast gene YOR022C): 1.1 | level of expressed mRNA in the presence of chemical substance / level in the absence of chemical substance (yeast gene YOR087W): 0.8 | level of expressed mRNA in the presence of chemical substance / level in the absence of chemical substance (yeast gene YOR138C): 1.1 | The level of expressed mRNA in the presence of chemical substance/The level of expressed mRNA in the absence of chemical substance (yeast gene YOR197W): 1.5 | level of expressed mRNA in the presence of chemical substance / level in the absence of chemical substance (yeast gene YOR253W): 0.9 | level of expressed mRNA in the presence of chemical substance / level in the absence of chemical substance (yeast gene YOR267C): 1.3 | level of expressed mRNA in the presence of chemical substance / level in the absence of chemical substance (yeast gene YOR325W): 0.8 | level of expressed mRNA in the presence of chemical substance / level in the absence of chemical substance (yeast gene YPL005W): 1.2 | The level of expressed mRNA in the presence of chemical substance/The level of expressed mRNA in the absence of chemical substance (yeast gene YPL087W): 2.1 | level of expressed mRNA in the presence of chemical substance / level in the absence of chemical substance (yeast gene YPL150W): 1.4 | level of expressed mRNA in the presence of chemical substance / level in the absence of chemical substance (yeast gene YPL152W): 1.2 | level of expressed mRNA in the presence of chemical substance / level in the absence of chemical substance (yeast gene YPL168W): 1.1 | level of expressed mRNA in the presence of chemical substance / level in the absence of chemical substance (yeast gene YPL180W): 1.0 | level of expressed mRNA in the presence of chemical substance / level in the absence of chemical substance (yeast gene YPL188W): 0.7 | The level of expressed mRNA in the presence of chemical substance/The level of expressed mRNA in the absence of chemical substance (yeast gene YPL196W): 1.4 | The level of expressed mRNA in the presence of chemical substance/The level of expressed mRNA in the absence of chemical substance (yeast gene YPL206C): 1.4 | level of expressed mRNA in the presence of chemical substance / level in the absence of chemical substance (yeast gene YPL221W): 1.5 | The level of expressed mRNA in the presence of chemical substance/The level of expressed mRNA in the absence of chemical substance (yeast gene YPL222W): 1.1 | level of expressed mRNA in the presence of chemical substance / level in the absence of chemical substance (yeast gene YPL225W): 1.0 | The level of expressed mRNA in the presence of chemical substance/The level of expressed mRNA in the absence of chemical substance (yeast gene YPR023C): 1.0 | level of expressed mRNA in the presence of chemical substance / level in the absence of chemical substance (yeast gene YPR049C): 1.0 | level of expressed mRNA in the presence of chemical substance / level in the absence of chemical substance (yeast gene YPR146C): 1.0 | level of expressed mRNA in the presence of chemical substance / level in the absence of chemical substance (yeast gene YPR148C): 0.9 | The level of expressed mRNA in the presence of chemical substance/The level of expressed mRNA in the absence of chemical substance (yeast gene YPR151C): 1.3 | level of expressed mRNA in the presence of chemical substance / level in the absence of chemical substance (yeast gene YPR172W): 1.1
